According to the supplement of paper PMC11061612:

Assays:
Assay in all cases: combination Emax (second highest fraction inhibited in the dose matrix, 72 h); higher = more inhibition; extreme values may be limits of the assay
[1] = tested on: OVMIU (Ovarian Carcinoma)
Procedure, shortened: (§1)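 Cell lines in DMEM/F12 or RPMI with 10% FBS were plated in 1536-well plates, held 24 hours at 37°C, 5% CO2, then given two-drug dose matrices for 72 hours (DMSO typically 0.2%). Viability was read by CellTiter-Glo 2.0 luminescence and scaled as inhibition from 0 (vehicle wells) to 1 (blank wells). Combination Emax is the second-highest inhibition in the matrix; Bliss excess is observed combination effect minus expected EA + EB − EA·EB, EA and EB being single-agent effects.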

[2] = tested on: RCM-1 (Colorectal Carcinoma)
Procedure, shortened: as §1

[3] = tested on: COLO-680N (Esophageal Squamous Cell Carcinoma)
Procedure, shortened: as §1

[4] = tested on: TE-8 (Esophageal Squamous Cell Carcinoma)
Procedure, shortened: as §1

[5] = tested on: SK-PN-DW (Other Solid Carcinomas)
Procedure, shortened: as §1

[6] = tested on: SHP-77 (Small Cell Lung Carcinoma)
Procedure, shortened: as §1

[7] = tested on: RKN (Other Solid Carcinomas)
Procedure, shortened: as §1

[8] = tested on: CAL-62 (Thyroid Gland Carcinoma)
Procedure, shortened: as §1

[9] = tested on: PANC-03-27 (Pancreatic Carcinoma)
Procedure, shortened: as §1

[10] = tested on: OPM-2 (Plasma Cell Myeloma)
Procedure, shortened: as §1

[11] = tested on: MKN45 (Gastric Carcinoma)
Procedure, shortened: as §1

[12] = tested on: VAL (B-Cell Non-Hodgkin's Lymphoma)
Procedure, shortened: as §1

[13] = tested on: L-1236 (Hodgkin's Lymphoma)
Procedure, shortened: as §1

[14] = tested on: IST-MES1 (Mesothelioma)
Procedure, shortened: as §1

[15] = tested on: REH (B-Lymphoblastic Leukemia)
Procedure, shortened: as §1

[16] = tested on: LK-2 (Squamous Cell Lung Carcinoma)
Procedure, shortened: as §1

[17] = tested on: PC-3_[JPC-3] (Lung Adenocarcinoma)
Procedure, shortened: as §1

[18] = tested on: NB12 (Neuroblastoma)
Procedure, shortened: as §1

[19] = tested on: NCI-H2342 (Lung Adenocarcinoma)
Procedure, shortened: as §1

[20] = tested on: SK-MEL-2 (Melanoma)
Procedure, shortened: as §1

Row | Structure (SMILES) | combination Emax [1] | combination Emax [2] | combination Emax [3] | combination Emax [4] | combination Emax [5] | combination Emax [6] | combination Emax [7] | combination Emax [8] | combination Emax [9] | combination Emax [10] | combination Emax [11] | combination Emax [12] | combination Emax [13] | combination Emax [14] | combination Emax [15] | combination Emax [16] | combination Emax [17] | combination Emax [18] | combination Emax [19] | combination Emax [20]
1 | C[C@@H](Oc1cc(-c2cnn(C3CCNCC3)c2)cnc1N)c1c(Cl)ccc(F)c1Cl [Crizotinib] + CC1=C(C(=CC=C1)Cl)NC(=O)C2=CN=C(S2)NC3=CC(=NC(=N3)C)N4CCN(CC4)CCO [Dasatinib] (first compound max 10 µM, 7x7, partner max 2 µM) | 0.933 | 0.61 | 0.869 | 0.838 | 0.763 | 0.259 | 0.567 | 0.677 | 0.887 | 0.964 | 0.854 | 0.841 | 0.905 | 0.938 | 0.752 | 0.765 | 0.809 | 0.766 | 0.37 | 0.0969
2 | CN(CCO)CC[C@H](CSc1ccccc1)Nc1ccc(S(=O)(=O)NC(=O)c2ccc(N3CCC([C@@H](O)c4ccccc4-c4ccc(Cl)cc4)CC3)cc2)cc1S(=O)(=O)C(F)(F)F [AZD4320] + CC(=O)O[C@H]1C(=O)[C@@]2(C)[C@H]([C@H](OC(=O)c3ccccc3)[C@]3(O)C[C@H](OC(=O)[C@H](O)[C@@H](NC(=O)c4ccccc4)c4ccccc4)C(C)=C1C3(C)C)[C@]1(OC(C)=O)CO[C@@H]1C[C@@H]2O [Paclitaxel] (first compound max 1 µM, 7x7, partner max 3 µM) | 0.929 | 0.54 | 0.771 | 0.967 | 0.918 | 1 | 0.994 | 0.951 | 0.885 | 1 | 0.751 | 1 | 1 | 0.873 | 1 | 1 | 0.76 | 1 | 0.977 | 0.915
3 | C=CCn1c(=O)c2cnc(Nc3ccc(N4CCN(C)CC4)cc3)nc2n1-c1cccc(C(C)(C)O)n1 [AZD1775] + Nc1ccn([C@@H]2O[C@H](CO)[C@@H](O)C2(F)F)c(=O)n1 [Gemcitabine] (first compound max 1 µM, partner max 0.3 µM) | 0.608 | 0.593 | 0.419 | 0.806 | 0.864 | 0.676 | 0.633 | 0.826 | 0.703 | 0.953 | 0.753 | 0.794 | 0.954 | 0.831 | 0.999 | 0.982 | 0.574 | 0.806 | 0.784 | 0.507
4 | Cc1cc2ncnn2cc1Nc1ncc2c(n1)n(C1CCOCC1)c(=O)n2C [AZD7648] + COc1cc([C@@H]2c3cc4c(cc3[C@@H](O[C@@H]3O[C@@H]5CO[C@@H](C)O[C@H]5[C@H](O)[C@H]3O)[C@H]3COC(=O)[C@H]23)OCO4)cc(OC)c1O [Etoposide] (first compound max 10 µM, 7x7, partner max 10 µM) | 0.498 | 0.515 | 0.404 | 0.602 | 0.918 | 0.546 | 0.598 | 0.829 | 0.619 | 0.788 | 0.582 | 0.905 | 0.845 | 0.685 | 0.976 | 0.784 | 0.415 | 0.695 | 0.569 | 0.166
5 | Cc1c2c(nn1C)CSCc1cc(n(C)n1)CSc1cc(c3ccccc3c1)OCCCc1c(C(=O)O)n(C)c3c-2c(Cl)ccc13 [AZD5991] + Nc1ccn([C@@H]2O[C@H](CO)[C@@H](O)C2(F)F)c(=O)n1 [Gemcitabine] (first compound max 1 µM, 7x7, partner max 0.3 µM) | 0.551 | 0.392 | 0.365 | 0.574 | 0.815 | 0.595 | 0.107 | 0.751 | 0.549 | 1 | 0.64 | 0.847 | 0.806 | 0.742 | 0.984 | 0.674 | 0.58 | 0.77 | 0.636 | 0.925
6 | O=C(c1cc(Cc2n[nH]c(=O)c3ccccc23)ccc1F)N1CCN(C(=O)C2CC2)CC1 [Olaparib] + CC1(C)CCC(CN2CCN(c3ccc(C(=O)NS(=O)(=O)c4ccc(NCC5CCOCC5)c([N+](=O)[O-])c4)c(Oc4cnc5[nH]ccc5c4)c3)CC2)=C(c2ccc(Cl)cc2)C1 [Venetoclax] (first compound max 10 µM, 7x7, partner max 1 µM) | 0.114 | 0.0674 | 0.0836 | 0.137 | 0.301 | 0.258 | 0.119 | 0.0638 | 0.12 | 0.256 | 0.201 | 1 | 0.37 | 0.283 | 0.966 | 0.347 | 0.153 | 0.922 | 0.158 | 0.162
7 | C[C@@H]1COCCN1c1cc(C2([S@](C)(=N)=O)CC2)nc(-c2ccnc3[nH]ccc23)n1 [AZD6738] + Nc1ccn([C@@H]2O[C@H](CO)[C@@H](O)C2(F)F)c(=O)n1 [Gemcitabine] (first compound max 10 µM, 7x7, partner max 0.3 µM) | 0.517 | 0.744 | 0.529 | 0.83 | 0.957 | 0.931 | 0.788 | 0.871 | 0.737 | 0.942 | 0.756 | 0.809 | 0.918 | 0.798 | 0.994 | 0.918 | 0.665 | 0.801 | 0.85 | 0.454
8 | C[C@@H](Nc1cc(F)cc(F)c1)c1cc(C(=O)N(C)C)cc2c(=O)cc(N3CCOCC3)oc12 [AZD8186] + CC(=O)c1c(C)c2cnc(Nc3ccc(N4CCNCC4)cn3)nc2n(C2CCCC2)c1=O [Palbociclib] (first compound max 10 µM, 7x7, partner max 10 µM) | 0.497 | 0.335 | 0.419 | 0.502 | 0.644 | 0.337 | 0.292 | 0.36 | 0.513 | 0.563 | 0.534 | 0.707 | 0.697 | 0.454 | 0.625 | 0.237 | 0.369 | 0.403 | 0.337 | 0
9 | O=C(c1cc(Cc2n[nH]c(=O)c3ccccc23)ccc1F)N1CCN(C(=O)C2CC2)CC1 [Olaparib] + COc1nnc2ccc(N3CCC(c4ccc(OCCN5CCN(C)C(=O)[C@H]5C)cc4)CC3)nn12 [AZD5153] (first compound max 10 µM, 7x7, partner max 1 µM) | 0.603 | 0.522 | 0.27 | 0.393 | 0.698 | 0.3 | 0.412 | 0.69 | 0.196 | 1 | 0.409 | 0.771 | 0.96 | 0.611 | 0.762 | 0.372 | 0.182 | 0.782 | 0.289 | 0.53
10 | CC1(C)CCC(CN2CCN(c3ccc(C(=O)NS(=O)(=O)c4ccc(NCC5CCOCC5)c([N+](=O)[O-])c4)c(Oc4cnc5[nH]ccc5c4)c3)CC2)=C(c2ccc(Cl)cc2)C1 [Venetoclax] + CS(=O)(=O)CCNCc1ccc(-c2ccc3ncnc(Nc4ccc(OCc5cccc(F)c5)c(Cl)c4)c3c2)o1 [Lapatinib] (first compound max 1 µM, 7x7, partner max 10 µM) | 0.607 | 0.42 | 0.231 | 0.263 | 0.455 | 0.344 | 0.171 | 0.114 | 0.5 | 0.64 | 0.242 | 1 | 0.655 | 0.313 | 0.916 | 0.31 | 0.568 | 0.915 | 0.183 | 0.174
11 | Cc1c2c(nn1C)CSCc1cc(n(C)n1)CSc1cc(c3ccccc3c1)OCCCc1c(C(=O)O)n(C)c3c-2c(Cl)ccc13 [AZD5991] + CS(=O)(=O)CCNCc1ccc(-c2ccc3ncnc(Nc4ccc(OCc5cccc(F)c5)c(Cl)c4)c3c2)o1 [Lapatinib] (first compound max 1 µM, 7x7, partner max 10 µM) | 0.687 | 0.409 | 0.291 | 0.409 | 0.956 | 0.42 | 0.205 | 0.237 | 0.558 | 1 | 0.245 | 0.677 | 0.798 | 0.615 | 0.862 | 0.186 | 0.833 | 0.464 | 0.34 | 0.955
12 | CN(CCO)CC[C@H](CSc1ccccc1)Nc1ccc(S(=O)(=O)NC(=O)c2ccc(N3CCC([C@@H](O)c4ccccc4-c4ccc(Cl)cc4)CC3)cc2)cc1S(=O)(=O)C(F)(F)F [AZD4320] + Nc1ccn([C@@H]2O[C@H](CO)[C@@H](O)C2(F)F)c(=O)n1 [Gemcitabine] (first compound max 1 µM, 7x7, partner max 0.3 µM) | 0.596 | 0.37 | 0.3 | 0.57 | 0.165 | 0.549 | 0.275 | 0.911 | 0.737 | 0.628 | 0.582 | 1 | 1 | 0.8 | 1 | 0.916 | 0.675 | 1 | 0.403 | 0.0969
